In US20180312473A1, “PHENAZINE DERIVATIVES AS ANTIMICROBIAL AGENTS” (priority 2015, published 2018):
≈ marks a conversion by molar mass, not a printed value. Where two headings read alike, the source gives them in different places.

Columns and labels:
[1] = tested on: Enterococcus faecium (ATCC 700221), VRE; assay: MIC assay (broth microdilution, CLSI); format: cell-based
human red blood cells = assay: Hemolysis assay with red blood cells; conditions: human, 1 h, 200 μM, pH 7.2
Procedure: The hemolysis activities of select compounds of the invention were determined. […] The washing was repeated three times with the buffer. In 96-well plate, test compounds were added to the buffer from DMSO stocks. […] The plate was then incubated for 1 hour at 37° C. After incubation, the plate was centrifuged for 5 minutes at 3,500 rpm. Then 80 μL of the supernatant was transferred to another 96-well plate, and the optical density (OD) was read at 405 nm. DMSO served as the negative control (0% hemolysis), while Triton X served as the positive control (100% hemolysis). The percent of hemolysis was calculated as (OD405 of the compound−OD405 of DMSO)/(OD405 of Triton X−OD405 of the buffer).
The washing was repeated three times with the buffer. In 96-well plate, test compounds were added to the buffer from DMSO stocks. […] The plate was then incubated for 1 hour at 37° C. After incubation, the plate was centrifuged for 5 minutes at 3,500 rpm. Then 80 μL of the supernatant was transferred to another 96-well plate and the optical density (OD) was read at 405 nm. DMSO served as our negative control (0% hemolysis) while Triton X served as our positive control (100% hemolysis). The percent of hemolysis was calculated as (OD405 of the test compound−OD405 DMSO)/(OD405 Triton X−OD405 buffer) from three independent experiments.

in vitro = format: cell-based; conditions: human
Procedure: The cytotoxicities of select compounds of the invention against HeLa cells were determined. HeLa cytotoxicity was assessed using the LDH release assay described by CYTOTOX96 (Promega G1780). HeLa cells were grown in Dulbecco's Modified Eagle Medium (DMEM; Gibco) supplemented with 10% Fetal Bovine Serum (FBS) at 37° C. with 5% CO2. […] Triton X-100 (at 2% v/v) was used as the positive control for maximum lactate dehydrogenate (LDH) activity in this assay (e.g., complete cell death), while “medium only” lanes served as negative control lanes (e.g., no cell death). DMSO was used as the vehicle control. […] Finally, Stop Solution (50 μL) was added to the incubating plates, and the absorbance was measured at 490 nm.
HeLa cytotoxicity was assessed using the LDH release assay described by CYTOTOX96 (Promega G1780). HeLa cells were grown in Dulbecco's Modified Eagle Medium (DMEM; Gibco) supplemented with 10% Fetal Bovine Serum (FBS) at 37° C. with 5% CO2. […] Triton X-100 (at 2% v/v) was used as the positive control for maximum lactate dehydrogenate (LDH) activity in this assay (e.g., complete cell death), while “medium only” lanes served as negative control lanes (e.g., no cell death). DMSO was used as our vehicle control. […] Finally, Stop Solution (50 μL) was added to the incubating plates and the absorbance was measured at 490 nm. Results are from three independent experiments (FIG. 19)

MRSA BAA-1707 = assay: MIC assay (broth microdilution, CLSI); conditions: Staphylococcus aureus, read-out: MIC, MRSA BAA-1707
[2] = tested on: MRSA-2 planktonic cells and biofilms; assay: Calgary Biofilm Device (CBD) assay, MBC/MBEC; format: cell-based, Staphylococcus aureus; conditions: for MBC: Staphylococcus aureus, MRSA
A. baumannii 19606 = assay: MIC assay (broth microdilution, CLSI); format: cell-based, Acinetobacter baumannii; conditions: Acinetobacter baumannii, 19606; read-out: A. baumannii 19606 MIC
[3] = tested on: MRSA-2 (methicillin-resistant Staphylococcus aureus clinical isolate); assay: MIC assay (broth microdilution, CLSI); format: cell-based; conditions: Staphylococcus aureus, MRSA, read-out: MIC, MRSA-2
[4] = tested on: Staphylococcus epidermidis (ATCC 12228); assay: MIC assay (broth microdilution, CLSI); format: cell-based; conditions: Staphylococcus epidermidis, ATCC12228
E. coli UAEC-1 = assay: MIC assay (broth microdilution, CLSI); format: cell-based; conditions: Escherichia coli, UAEC1; read-out: E. coli UAEC-1 MIC
MRSA BAA-44 = assay: MIC assay (broth microdilution, CLSI); conditions: Staphylococcus aureus, read-out: MIC, MRSA BAA-44
[5] = tested on: Staphylococcus epidermidis (ATCC 35984), MRSE; assay: MIC assay (broth microdilution, CLSI); format: cell-based; conditions: Staphylococcus epidermidis
P. aeruginosa (PAO1) = assay: MIC assay (broth microdilution, CLSI); format: cell-based; conditions: Pseudomonas aeruginosa, PAO1; read-out: PAO1 MIC
[6] = tested on: MRSE (S. epidermidis ATCC 35984) planktonic cells and biofilms; assay: Calgary Biofilm Device (CBD) assay, MBC/MBEC; format: cell-based, Staphylococcus epidermidis; conditions: Staphylococcus epidermidis; Table 8; read-out: MRSE 35984 MBC
K. pneumoniae 13883 = assay: MIC assay (broth microdilution, CLSI); format: cell-based, Klebsiella pneumoniae; conditions: Klebsiella pneumoniae, 13883; read-out: K. pneumoniae 13883 MIC
[7] = tested on: MRSA-1 (methicillin-resistant Staphylococcus aureus clinical isolate); assay: MIC assay (broth microdilution, CLSI); format: cell-based; conditions: Staphylococcus aureus, MRSA, Table 2A; read-out: MIC, MRSA-1
[8] = Enterococcus faecium, Table 2A, read-out: MIC, Enterococcus faecium (ATCC 700221)
[9] = Table 7, b lowest concentration tested, read-out: MIC, VRE 700221
[10] = Table 8, a/b 2-/4-fold range in independent experiments, read-out: MRSA-2 MBC
[11] = Table 7, a midpoint of 2-fold range, b lowest concentration tested
[12] = Table 2A, read-out: MIC, Staphylococcus epidermidis (ATCC 12228)
[13] = Table 7, b lowest concentration tested, read-out: MIC, S. epidermidis 12228
[14] = Table 2A, read-out: MIC, Staphylococcus epidermidis (ATCC 35984)
[15] = Table 7, read-out: MIC, MRSE 35984

Structure (SMILES)	MIC [1, 8]	MIC [1, 9]	% Hemolysis (200 μM) (human red blood cells)	% Hemolysis at 200 μM (human red blood cells)	MIC (MRSA BAA-1707)	MBC ([2]; Table 4, read-out: MBC, MRSA-2)	MBC [2, 10]	MIC (A. baumannii 19606)	MIC ([3]; Table 2A)	MIC [3, 11]	MIC [4, 12]	MIC [4, 13]	MIC (E. coli UAEC-1)	MIC (MRSA BAA-44)	MIC [5, 14]	MIC [5, 15]	MIC (P. aeruginosa (PAO1))	MBEC:MBC ratio, MRSA-2 ([2]; Table 4)	melting point	MIC (K. pneumoniae 13883)	other results
Oc1c(Br)cc(Br)c2nccnc12 [Compound 25]	100 µM (≈ 30.4 µg/mL)	100 µM (≈ 30.4 µg/mL)	1.8%	1.8%	6.25 µM (≈ 1.9 µg/mL)	1500 µM (≈ 456 µg/mL)	1500 µM (≈ 456 µg/mL)	6.25 µM (≈ 1.9 µg/mL)	25 µM (≈ 7.6 µg/mL)	25 µM (≈ 7.6 µg/mL)	12.5 to 25 µM (≈ 3.8 to 7.6 µg/mL)	18.8 µM (≈ 5.71 µg/mL)	12.5 µM (≈ 3.8 µg/mL)	12.5 µM (≈ 3.8 µg/mL)	12.5 to 25 µM (≈ 3.8 to 7.6 µg/mL)	18.8 µM (≈ 5.71 µg/mL)	> 100 µM				IC50 at 24 h (in vitro): > 100 µM
Oc1c(I)cc(Cl)c2nc3ccccc3nc12 [Compound 9, 4-Chloro-2-iodo-1-hydroxyphenazine]	6.25 µM (≈ 2.23 µg/mL)	6.25 µM (≈ 2.23 µg/mL)	≤1%	≤1%	3.13 µM (≈ 1.12 µg/mL)	93.8 µM (≈ 33.4 µg/mL)	93.8 µM (≈ 33.4 µg/mL)		25 µM (≈ 8.91 µg/mL)	25 µM (≈ 8.91 µg/mL)	25 µM (≈ 8.91 µg/mL)	25 µM (≈ 8.91 µg/mL)		12.5 µM (≈ 4.46 µg/mL)	25 µM (≈ 8.91 µg/mL)	25 µM (≈ 8.91 µg/mL)		2.7	175 to 177 °C		MBC [6]: 125 µM (≈ 44.6 µg/mL)
Oc1cccc2nc3cc(Cl)c(Cl)cc3nc12 [Compound 21]	> 100 µM	> 100 µM	≤1%					> 100 µM	> 100 µM	> 100 µM	> 100 µM	> 100 µM	> 100 µM		> 100 µM	> 100 µM	> 100 µM			> 100 µM	
COc1cccc2nc3cc(Cl)c(Cl)cc3nc12 [Compound 20, 7,8-Dichloro-1-methoxyphenazine]	> 100 µM	> 100 µM	1.5%					> 100 µM	> 100 µM	> 100 µM	> 100 µM	> 100 µM	> 100 µM		> 100 µM	> 100 µM	> 100 µM			> 100 µM	
Oc1c(Cl)cc(Cl)c2nc3ccccc3nc12 [Compound 3, 2,4-Dichloro-1-hydroxyphenazine]	12.5 µM (≈ 3.31 µg/mL)	12.5 µM (≈ 3.31 µg/mL)	≤1%	≤1%	3.13 µM (≈ 0.83 µg/mL)	62.5 µM (≈ 16.6 µg/mL)	62.5 µM (≈ 16.6 µg/mL)		3.13 µM (≈ 0.83 µg/mL)	3.13 µM (≈ 0.83 µg/mL)	3.13 µM (≈ 0.83 µg/mL)	3.13 µM (≈ 0.83 µg/mL)		3.13 µM (≈ 0.83 µg/mL)	3.13 µM (≈ 0.83 µg/mL)	3.13 µM (≈ 0.83 µg/mL)		>16.0	205 to 207 °C		MIC [7]: 3.13 µM (≈ 0.83 µg/mL)
